Positions of bridges follow the written chain, without caps; N, C: chain ends. Non-standard residues stand in square brackets, D forms with d. Residues, ends and D or L forms follow the SMILES beside them. Agb = N=C(N)NCC[C@H](N)C(=O)O
Legend:
[1] = biological target: human Nav1.7 (Homo sapiens, UniProt Q15858); experiment: cell-based; settings: for IC50: whole-cell voltage clamp, HEK 293 cells, read-out: hNav1.7 IC50
Experimental: HEK-293 cells stably expressing human Nav1.1, Nav1.4, Nav1.5, Nav1.6 and Nav1.7 were obtained from Dr. Chris Lossin. Rat Nav1.3 expressing HEK-293 cells were from Dr. Steven Waxman (Yale University, New Haven, CT). These cell lines were cultured in complete DMEM supplemented with 10% FBS, 1% penicillin/streptomycin, and G418. The human Nav1.8 channel (co-expressing with human Navβ1 and Navβ2 subunits) and the Nav1.9 channel (co-expressing with human Trkb, Navβ1, and Navβ2 subunits) were obtained from Icagen (Durham, NC). hNav1.8 cells cultured with G418 (0.4 mg/mL) and puromycin ([…]/mL) and hNav1.9 cells were cultured with G418 (0.4 mg/mL), puromycin ([…]), and zeocin (0.05 mg/mL). Human Nav1.2 were expressed transiently by transfection of the hNav1.2 cDNA (from Dr. Alan L. Goldin, UC Irvine, CA) into HEK-293 cells.
Whole-cell patch-clamp experiments on recombinant channels were conducted manually at room temperature (22-24° C.) using an EPC-10 amplifier (HEKA Electronik, Lambrecht/Pfalz, Germany). Cells were trypsinized and plated onto poly-1-lysine-coated coverslips. All recordings were done in normal Ringer external bath solution containing (in mM) 160 NaCl, 4.5 KCl, 2 CaCl2), 1 MgCl2, 10 HEPES (pH 7.4 and 305 mOsm) as. Patch pipettes were pulled from soda lime glass (micro-hematocrit tubes, Kimble Chase, Rochester, NY) and had resistances of 2-3 MQ when filled with CsF-based internal solution containing (in mM) 10 NaF, 110 CsF, 20 CsCl, 10 HEPES, 2 EGTA, (pH 7.4, 310 mOsm). Data acquisition and analysis were performed with Pulse-PulseFit (HEKA Electronik GmbH, Germany), IgorPro (WaveMetrics, Portland, OR), and Origin 9.0 software (OriginLab Corporation, Northampton, MA). Cells were held at −90 mV and voltage stepped to −120 mV for 200 ms before depolarizing to −10 mV for 50 msec to elicit inward currents. Control test currents were monitored for 5-10 min to ensure that the amplitude and kinetics of the response were stable. Series resistance was compensated to 80-90% and linear leak currents and capacitance artefacts were corrected using a P/4 subtraction method. Pulse interval was 0.1 Hz and peptides were applied to individual cells using a glass transfer pipette directly into the recording bath. For measuring inhibition, currents were allowed to saturate with repeated pulsing before addition of subsequent doses. IC50 values were derived from measurements performed on individual cells that were tested with at least three or more concentrations of each peptide.

[2] = biological target: T1, human Nav1.2 (Homo sapiens, UniProt Q99250); experiment: cell-based; settings: HEK293, read-out: block of hNav1.2 current (% inhibition)
T1 construct: host or cells: HEK-293 (transient)
T1 sequence (Q99250 whole entry): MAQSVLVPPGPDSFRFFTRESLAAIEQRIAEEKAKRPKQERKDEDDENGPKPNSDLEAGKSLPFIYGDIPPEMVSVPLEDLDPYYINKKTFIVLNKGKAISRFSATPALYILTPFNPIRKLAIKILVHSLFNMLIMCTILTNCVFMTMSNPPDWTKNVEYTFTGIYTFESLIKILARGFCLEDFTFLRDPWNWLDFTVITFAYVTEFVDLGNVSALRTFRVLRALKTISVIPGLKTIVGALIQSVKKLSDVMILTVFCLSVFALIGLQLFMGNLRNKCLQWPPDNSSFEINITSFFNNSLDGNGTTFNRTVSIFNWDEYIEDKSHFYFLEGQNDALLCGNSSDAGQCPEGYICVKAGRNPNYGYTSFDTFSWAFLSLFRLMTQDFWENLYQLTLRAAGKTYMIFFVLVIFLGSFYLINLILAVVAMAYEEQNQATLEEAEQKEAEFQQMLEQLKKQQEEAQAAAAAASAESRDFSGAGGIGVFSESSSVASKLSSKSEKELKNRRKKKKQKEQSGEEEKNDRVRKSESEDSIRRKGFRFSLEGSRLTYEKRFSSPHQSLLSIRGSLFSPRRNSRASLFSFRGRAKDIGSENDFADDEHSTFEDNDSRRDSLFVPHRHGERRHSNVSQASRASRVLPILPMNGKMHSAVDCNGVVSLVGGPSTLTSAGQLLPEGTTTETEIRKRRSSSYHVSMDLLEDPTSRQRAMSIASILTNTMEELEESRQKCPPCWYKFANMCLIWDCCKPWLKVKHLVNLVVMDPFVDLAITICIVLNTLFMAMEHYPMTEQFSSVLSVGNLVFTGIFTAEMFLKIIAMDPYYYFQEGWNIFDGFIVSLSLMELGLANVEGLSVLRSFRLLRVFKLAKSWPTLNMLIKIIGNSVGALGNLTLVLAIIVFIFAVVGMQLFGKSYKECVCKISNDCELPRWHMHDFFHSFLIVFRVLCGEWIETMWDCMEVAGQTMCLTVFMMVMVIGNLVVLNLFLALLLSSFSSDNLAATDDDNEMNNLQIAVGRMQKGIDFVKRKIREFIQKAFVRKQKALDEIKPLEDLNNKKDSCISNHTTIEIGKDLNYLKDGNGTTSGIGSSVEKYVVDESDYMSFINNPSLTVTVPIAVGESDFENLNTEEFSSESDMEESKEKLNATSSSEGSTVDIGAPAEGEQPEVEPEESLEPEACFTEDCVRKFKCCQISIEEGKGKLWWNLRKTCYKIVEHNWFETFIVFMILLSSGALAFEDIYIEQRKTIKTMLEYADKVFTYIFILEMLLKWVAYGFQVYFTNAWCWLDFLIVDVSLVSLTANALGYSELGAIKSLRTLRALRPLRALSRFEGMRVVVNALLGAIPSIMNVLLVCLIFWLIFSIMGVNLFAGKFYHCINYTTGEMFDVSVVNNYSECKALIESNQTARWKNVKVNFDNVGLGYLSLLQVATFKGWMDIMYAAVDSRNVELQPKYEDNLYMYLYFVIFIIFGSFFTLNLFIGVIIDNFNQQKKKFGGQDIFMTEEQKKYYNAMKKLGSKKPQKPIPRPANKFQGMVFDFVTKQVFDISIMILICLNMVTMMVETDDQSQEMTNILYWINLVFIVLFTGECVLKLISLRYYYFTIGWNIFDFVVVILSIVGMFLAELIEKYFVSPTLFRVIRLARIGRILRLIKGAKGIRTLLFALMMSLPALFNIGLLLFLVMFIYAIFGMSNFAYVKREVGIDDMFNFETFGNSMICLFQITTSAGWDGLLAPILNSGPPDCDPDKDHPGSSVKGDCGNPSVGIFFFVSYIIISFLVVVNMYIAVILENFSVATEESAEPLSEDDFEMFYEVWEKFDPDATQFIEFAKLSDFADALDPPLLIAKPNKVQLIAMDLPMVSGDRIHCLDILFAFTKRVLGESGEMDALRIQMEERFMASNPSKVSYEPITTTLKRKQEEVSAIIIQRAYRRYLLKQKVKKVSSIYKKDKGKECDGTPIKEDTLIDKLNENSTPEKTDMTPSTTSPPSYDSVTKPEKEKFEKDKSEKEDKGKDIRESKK

[3] = biological target: human Nav1.4 (Homo sapiens, UniProt P35499); experiment: cell-based; settings: HEK293, read-out: block of hNav1.4 current (% inhibition)
[4] = biological target: human Nav1.5 (Homo sapiens, UniProt Q14524); experiment: in vitro; assay type: cell-based; settings: pH 7.4, read-out: block of hNav1.5 current (% inhibition)
[5] = biological target: hERG channel (Homo sapiens, UniProt Q12809); experiment: in vitro
[6] = test system: rat models of thermal and chemical nociception; set-up: motor effect via intrathecal administration: dose or concentration left out as unconfirmed; settings: cited from earlier work
[7] = biological target: hNav1.7 (Homo sapiens, UniProt Q15858); settings: peptides of the literature; cited from earlier work
hNav1.7, sequence (Q15858 whole entry): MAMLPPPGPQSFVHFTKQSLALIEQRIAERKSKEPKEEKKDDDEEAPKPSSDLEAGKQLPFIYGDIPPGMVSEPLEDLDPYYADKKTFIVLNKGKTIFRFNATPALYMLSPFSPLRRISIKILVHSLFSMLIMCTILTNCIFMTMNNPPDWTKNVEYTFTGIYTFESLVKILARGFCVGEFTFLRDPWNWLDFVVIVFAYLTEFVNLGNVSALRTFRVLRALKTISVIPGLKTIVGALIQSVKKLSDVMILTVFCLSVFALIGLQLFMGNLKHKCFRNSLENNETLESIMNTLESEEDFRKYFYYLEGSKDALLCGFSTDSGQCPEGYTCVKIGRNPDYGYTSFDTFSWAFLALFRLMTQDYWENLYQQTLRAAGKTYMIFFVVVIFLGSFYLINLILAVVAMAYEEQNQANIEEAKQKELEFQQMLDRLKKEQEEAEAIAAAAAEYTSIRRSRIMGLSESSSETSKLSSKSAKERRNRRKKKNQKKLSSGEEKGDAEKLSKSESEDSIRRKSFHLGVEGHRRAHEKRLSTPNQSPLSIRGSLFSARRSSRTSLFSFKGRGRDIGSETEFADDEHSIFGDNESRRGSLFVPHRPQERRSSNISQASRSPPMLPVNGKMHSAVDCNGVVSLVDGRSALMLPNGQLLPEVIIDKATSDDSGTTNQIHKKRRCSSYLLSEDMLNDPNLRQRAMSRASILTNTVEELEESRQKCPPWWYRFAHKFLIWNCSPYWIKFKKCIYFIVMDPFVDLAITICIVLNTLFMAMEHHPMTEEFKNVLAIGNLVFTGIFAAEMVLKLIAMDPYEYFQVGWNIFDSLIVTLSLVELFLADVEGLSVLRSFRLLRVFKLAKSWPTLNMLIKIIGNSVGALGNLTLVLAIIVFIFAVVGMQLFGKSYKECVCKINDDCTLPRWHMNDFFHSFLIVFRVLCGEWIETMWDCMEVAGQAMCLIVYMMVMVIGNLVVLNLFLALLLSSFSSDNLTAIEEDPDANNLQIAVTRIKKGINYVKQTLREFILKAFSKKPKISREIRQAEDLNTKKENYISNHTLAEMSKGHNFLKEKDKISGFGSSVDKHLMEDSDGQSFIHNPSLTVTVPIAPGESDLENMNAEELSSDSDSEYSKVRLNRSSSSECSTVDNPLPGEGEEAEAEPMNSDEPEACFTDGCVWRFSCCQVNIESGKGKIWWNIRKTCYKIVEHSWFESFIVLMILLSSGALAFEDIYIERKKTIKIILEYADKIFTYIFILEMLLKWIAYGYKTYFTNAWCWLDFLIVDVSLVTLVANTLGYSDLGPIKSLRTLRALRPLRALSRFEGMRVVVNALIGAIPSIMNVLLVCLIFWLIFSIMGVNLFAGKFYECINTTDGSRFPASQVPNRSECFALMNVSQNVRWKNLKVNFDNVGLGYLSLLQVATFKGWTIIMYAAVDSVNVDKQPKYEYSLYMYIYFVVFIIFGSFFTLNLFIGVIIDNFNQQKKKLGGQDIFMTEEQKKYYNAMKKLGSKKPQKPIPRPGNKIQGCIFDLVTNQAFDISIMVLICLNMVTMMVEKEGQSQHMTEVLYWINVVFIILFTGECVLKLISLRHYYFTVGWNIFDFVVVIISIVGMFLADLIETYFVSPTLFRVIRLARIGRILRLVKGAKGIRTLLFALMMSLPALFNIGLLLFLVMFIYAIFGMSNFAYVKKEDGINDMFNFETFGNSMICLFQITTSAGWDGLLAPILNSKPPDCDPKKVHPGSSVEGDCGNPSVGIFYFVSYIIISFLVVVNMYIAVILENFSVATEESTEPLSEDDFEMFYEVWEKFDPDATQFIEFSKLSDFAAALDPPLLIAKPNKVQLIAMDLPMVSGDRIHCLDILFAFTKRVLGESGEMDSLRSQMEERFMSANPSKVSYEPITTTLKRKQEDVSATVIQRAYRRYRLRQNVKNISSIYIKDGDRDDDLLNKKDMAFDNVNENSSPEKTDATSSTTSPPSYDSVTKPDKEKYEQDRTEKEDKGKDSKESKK

human Nav1.7, sequence (Q15858 whole entry): as above

For `CC(C)C[C@@H]1NC(=O)CNC(=O)[C@H](CCC(=O)O)NC(=O)[C@@H]2CSSC[C@H](NC(=O)[C@@H](N)Cc3ccc(O)cc3)C(=O)N[C@@H](CCC(N)=O)C(=O)N[C@@H](CCCCN)C(=O)N[C@@H](C)C(=O)N[C@@H](Cc3ccccc3)C(=O)N[C@@H](Cc3c[nH]c4ccccc34)C(=O)N[C@@H]([C@@H](C)O)C(=O)N[C@H]3CSSC[C@H](NC(=O)[C@H](CCCNC(=N)N)NC1=O)C(=O)N[C@@H](CCNC(=N)N)C(=O)N[C@@H](CC(C)C)C(=O)N[C@@H](Cc1c[nH]c4ccccc14)C(=O)N[C@H](C(=O)N[C@@H](CCCCN)C(=O)N[C@@H](CCCCN)C(=O)N[C@@H](CCC(=O)O)C(=O)N[C@@H](CC(C)C)C(=O)N[C@@H](Cc1c[nH]c4ccccc14)C(N)=O)CSSC[C@H](NC(=O)[C@H](CCCCN)NC(=O)[C@H](CCCNC(=N)N)NC(=O)[C@H](CCC(=O)O)NC(=O)[C@H](CO)NC(=O)[C@H](CC(=O)O)NC3=O)C(=O)N2` [PTx2-2954], the “effect on hNav1.7 currents” value ([1]; at 5 μM) was “no effect”.

In the case of `CC(C)C[C@@H]1NC(=O)CNC(=O)[C@H](CCC(=O)O)NC(=O)[C@@H]2CSSC[C@H](NC(=O)[C@@H](N)Cc3ccc(O)cc3)C(=O)N[C@@H](CCC(N)=O)C(=O)N[C@@H](CCCCN)C(=O)N[C@@H](C)C(=O)N[C@@H](Cc3ccccc3)C(=O)N[C@@H](Cc3c[nH]c4ccccc34)C(=O)N[C@@H]([C@@H](C)O)C(=O)N[C@H]3CSSC[C@H](NC(=O)[C@H](CCCNC(=N)N)NC1=O)C(=O)N[C@@H](CCNC(=N)N)C(=O)N[C@@H](CC(C)C)C(=O)N[C@@H](Cc1c[nH]c4ccccc14)C(=O)N[C@H](C(=O)N[C@@H](CCCNC(=N)N)C(=O)N[C@@H](CCCCN)C(=O)N[C@@H](CCC(=O)O)C(=O)N[C@@H](CC(C)C)C(=O)N[C@@H](Cc1c[nH]c4ccccc14)C(N)=O)CSSC[C@H](NC(=O)[C@H](CCCCN)NC(=O)[C@H](CCCNC(=N)N)NC(=O)[C@H](CCC(=O)O)NC(=O)[C@H](CO)NC(=O)[C@H](CC(=O)O)NC3=O)C(=O)N2` [PTx2-2955], the IC50 [1] is reported as 185 nM.

`CC(C)C[C@@H]1NC(=O)CNC(=O)[C@H](CCC(=O)O)NC(=O)[C@@H]2CSSC[C@H](NC(=O)[C@@H](N)Cc3ccc(O)cc3)C(=O)N[C@@H](CCC(N)=O)C(=O)N[C@@H](CCCCN)C(=O)N[C@@H](C)C(=O)N[C@@H](Cc3ccccc3)C(=O)N[C@@H](Cc3c[nH]c4ccccc34)C(=O)N[C@@H]([C@@H](C)O)C(=O)N[C@H]3CSSC[C@H](NC(=O)[C@H](CCCNC(=N)N)NC1=O)C(=O)N[C@@H](CCNC(=N)N)C(=O)N[C@@H](CC(C)C)C(=O)N[C@@H](Cc1c[nH]c4ccccc14)C(=O)N[C@H](C(=O)N[C@@H](CCCNC(=N)N)C(=O)N[C@@H](CCCCN)C(=O)N[C@@H](CCC(=O)O)C(=O)N[C@@H](CC(C)C)C(=O)N[C@@H](Cc1c[nH]c4ccccc14)C(N)=O)CSSC[C@H](NC(=O)[C@H](CCCCN)NC(=O)[C@H](CCCNC(=N)N)NC(=O)[C@H](C)NC(=O)[C@H](CO)NC(=O)[C@H](CC(=O)O)NC3=O)C(=O)N2` [PTx2-3063] (H-YCQKAFWTCDSARKCCEGLRC[Agb]LWCRKELW-NH2; disulfide 2-16, 9-21, 15-25) gave an IC50 [1] of 154 nM.

With `CC(C)C[C@@H]1NC(=O)CNC(=O)[C@H](CCC(=O)O)NC(=O)[C@@H]2CSSC[C@H](NC(=O)[C@@H](N)Cc3ccc(O)cc3)C(=O)N[C@@H](CCC(N)=O)C(=O)N[C@@H](CCCCN)C(=O)N[C@@H](C)C(=O)N[C@@H](Cc3ccccc3)C(=O)N[C@@H](Cc3c[nH]c4ccccc34)C(=O)N[C@@H]([C@@H](C)O)C(=O)N[C@H]3CSSC[C@H](NC(=O)[C@H](CCCNC(=N)N)NC1=O)C(=O)N[C@@H](CCCNC(=N)N)C(=O)N[C@@H](CC(C)C)C(=O)N[C@@H](Cc1c[nH]c4ccccc14)C(=O)N[C@H](C(=O)N[C@@H](CCCNC(=N)N)C(=O)N[C@@H](CCCCN)C(=O)N[C@@H](CCC(=O)O)C(=O)N[C@@H](CC(C)C)C(=O)N[C@@H](Cc1c[nH]c4ccccc14)C(N)=O)CSSC[C@H](NC(=O)[C@H](CCCCN)NC(=O)[C@H](CCCNC(=N)N)NC(=O)[C@H](C)NC(=O)[C@H](CO)NC(=O)[C@H](CC(=O)O)NC3=O)C(=O)N2` [PTx2-3064] (H-YCQKAFWTCDSARKCCEGLRCRLWCRKELW-NH2; disulfide 2-16, 9-21, 15-25) the inhibition at 10 µM [2] was about 92%, the inhibition at 10 µM [3] was about 66% and the inhibition at 10 µM [4] was about 25%.

Work on `CSCC[C@@H]1NC(=O)[C@H](Cc2c[nH]c3ccccc23)NC(=O)[C@H](CCCCN)NC(=O)[C@H](CCC(N)=O)NC(=O)[C@@H](NC(=O)[C@@H](N)Cc2ccc(O)cc2)CSSC[C@@H]2NC(=O)[C@@H]3CSSC[C@@H](C(=O)N[C@@H](CCCNC(=N)N)C(=O)N[C@@H](CCCCN)C(=O)N[C@@H](CCC(=O)O)C(=O)N[C@@H](CC(C)C)C(=O)N[C@@H](CC(C)C)C(N)=O)NC(=O)[C@H](Cc4c[nH]c5ccccc45)NC(=O)[C@H](CC(C)C)NC(=O)[C@H](CCCNC(=N)N)NC(=O)[C@H](CSSC[C@H](NC(=O)[C@H]([C@@H](C)O)NC(=O)[C@H](CCC(N)=O)NC1=O)C(=O)N[C@@H](CC(=O)O)C(=O)N[C@@H](CCCCN)C(=O)N[C@@H](CC(=O)O)C(=O)N[C@@H](CCCNC(=N)N)C(=O)N[C@@H](CCCCN)C(=O)N3)NC(=O)[C@H](CCCNC(=N)N)NC(=O)[C@H](CC(C)C)NC(=O)CNC(=O)[C@H](CCC(=O)O)NC2=O` [PTx2-3066] (H-YCQKWMQTCDKDRKCCEGLRCRLWCRKELL-NH2; disulfide 2-16, 9-21, 15-25) yielded an IC50 [1] of 30.8 nM, an inhibition at 10 µM [2] of about 41% and an inhibition at 10 µM [3] of about 34%. For the same molecule, the inhibition at 10 µM [4] was about 1%.

In the case of `CSCC[C@@H]1NC(=O)[C@H](Cc2c[nH]c3ccccc23)NC(=O)[C@H](CCCCN)NC(=O)[C@H](CCC(N)=O)NC(=O)[C@@H](NC(=O)[C@@H](N)Cc2c[nH]cn2)CSSC[C@@H]2NC(=O)[C@@H]3CSSC[C@@H](C(=O)N[C@@H](CCCNC(=N)N)C(=O)N[C@@H](CCCCN)C(=O)N[C@@H](CCC(=O)O)C(=O)N[C@@H](CC(C)C)C(=O)N[C@@H](CC(C)C)C(N)=O)NC(=O)[C@H](Cc4c[nH]c5ccccc45)NC(=O)[C@H](CC(C)C)NC(=O)[C@H](CCCNC(=N)N)NC(=O)[C@H](CSSC[C@H](NC(=O)[C@H]([C@@H](C)O)NC(=O)[C@H](CCC(N)=O)NC1=O)C(=O)N[C@@H](CC(=O)O)C(=O)N[C@@H](CCCCN)C(=O)N[C@@H](CC(=O)O)C(=O)N[C@@H](CCCNC(=N)N)C(=O)N[C@@H](CCCCN)C(=O)N3)NC(=O)[C@H](CCCNC(=N)N)NC(=O)[C@H](Cc1ccccc1)NC(=O)CNC(=O)[C@H](CCC(=O)O)NC2=O` [PTx2-3258], the IC50 [5] is reported as 1000 nM.

For `CSCC[C@@H]1NC(=O)CNC(=O)[C@H](CCC(=O)O)NC(=O)[C@@H]2CSSC[C@H](NC(=O)[C@@H](N)Cc3ccc(O)cc3)C(=O)N[C@@H](CCC(N)=O)C(=O)N[C@@H](CCCCN)C(=O)N[C@@H](Cc3c[nH]c4ccccc34)C(=O)N[C@@H](CCSC)C(=O)N[C@@H](Cc3c[nH]c4ccccc34)C(=O)N[C@@H]([C@@H](C)O)C(=O)N[C@H]3CSSC[C@H](NC(=O)[C@H](C(C)C)NC1=O)C(=O)N[C@@H](CCCNC(=N)N)C(=O)N[C@@H](CC(C)C)C(=O)N[C@@H](Cc1c[nH]c4ccccc14)C(=O)N[C@H](C(=O)N[C@@H](CCCCN)C(=O)N[C@@H](CCCCN)C(=O)N[C@@H](CCCCN)C(=O)N[C@@H](CC(C)C)C(=O)N[C@@H](Cc1c[nH]c4ccccc14)C(=O)O)CSSC[C@H](NC(=O)[C@H](CCCCN)NC(=O)[C@H](CCCNC(=N)N)NC(=O)[C@H](CCC(=O)O)NC(=O)[C@H](CO)NC(=O)[C@H](CC(=O)O)NC3=O)C(=O)N2` [ProTx-II], the “effect on nociceptive assays” value ([6]; 0.24 μg i.t., Merck's study) is listed as “no effect”, the “motor effect via intrathecal administration” value ([6]; Merck's study) is listed as “laming effect” and the maximum tolerated dose ([6]; in 10 μL, rats, Janssen's study) is listed as 2 µg. The “analgesic effect following intrathecal injection” value ([6]; rat models of thermal and chemical nociception, Janssen Biotech) was “strong analgesic effect”.

In the case of “DCLKFGWKCNPRNDKCCSGLKSGSNHNWCKLHL [ProTx-III]”, the IC50 [7] is given as 11.5 nM.

For ECQKWMWTCDSARACCEGLRCKLWCRKII [JzTx-V], the IC50 [7] is given as 0.6 nM.

From patent US20260001922A1, “PEPTIDES TARGETING SODIUM CHANNELS TO TREAT PAIN” (priority 2022, published 2026)
